According to US20090263830A1, “VISUALIZATION AND QUANTITIATION OF CELLULAR CYTOTOXICITY USING CELL-PERMEABLE FLUOROGENIC PROTEASE SUBSTRATES AND CASPASE ACTIVITY INDICATOR MARKERS” (Oncoimmunin, Inc., priority 2002, published 2009):

How the values were obtained:
Jurkat cells = assay: Cellular cytotoxicity assay using various apoptosis/caspase activity markers and protease indicators; assay type: cell-based, human; details: indicator used for read-out, E:T 5 to 1
EL4 cells = assay: Flow-cytometry fluorescence cellular cytotoxicity (FCC) assay, CTL killing of peptide-pulsed target cells; assay type: cell-based, mouse

Bis-(N-CBZ-aspartyl-glutamyl-valyl-aspartylamide) Rhodamine 110 [Bis-(N-CBZ-DEVD amide)R22120]
% Killing (Jurkat cells; co-incubation 1 hr): 48.0% | % Killing (Jurkat cells; co-incubation 1 hr, listed as bis-(Z-DEVDamide)-Rhodamine 110): markedly lower than the other two protease indicators | % Killing (Jurkat cells; co-incubation 2 hr): 75.4%

MT246-256: irrelevant control polyoma virus peptide middle T protein epitope (SNPTYSVM, SEQ ID NO:22) (Synthetic peptide substrate.)
% of the target cells (CTO+) positive for DEVDase activity (EL4 cells): around 10%

B1: PE-labeled Annexin V: phycoerythrin labeled annexin V, cell surface marker of apoptosis (protein, UniProt P08758 2-320, looked up)
Annexin A5: AQVLRGTVTDFPGFDERADAETLRKAMKGLGTDEESILTLLTSRSNAQRQEISAAFKTLFGRDLLDDLKSELTGKFEKLIVALMKPSRLYDAYELKHALKGAGTNEKVLTEIIASRTPEELRAIKQVYEEEYGSSLEDDVVGDTSGYYQRMLVVLLQANRDPDAGIDEAQVEQDAQALFQAGELKWGTDEEKFITIFGTRSVSHLRKVFDKYMTISGFQIEETIDRETSGNLEQLLLAVVKSIRSIPAYLAETLYYAMKGAGTDDHTLIRVMVSRSEIDLFNIRKEFRKNFATSLYSMIKGDTSGDYKKALLLLCGEDD
modifications: phycoerythrin label
notes: phycoerythrin labeled annexin V, cell surface marker of apoptosis
% Killing (Jurkat cells; co-incubation 1 hr): 65.6% | % Killing (Jurkat cells; co-incubation 1 hr, listed as phycoerythine (PE) labeled annexin V): 65.5%
